From patent US20260306640A1, “TECHNOLOGIES TARGETING CELL STATES” (Auron Therapeutics, Inc., priority 2023, published 2026)
Read-outs that look alike come from different tables or passages of the source.

How the values were obtained:
Type in all cases: cell-based
KAT2B = KAT2B (Homo sapiens, UniProt Q92831); assay: Western blot of KAT2B level in NEPC primary patient organoid, 72 hours; parameters: degrader, Western blot; conditions: FIG. 3 (D)
Protocol: (§1) FIG. 3. Provided compounds can provide various activities. (A): Provided technologies can reduce KAT2A and KAT2B levels and histone acetylation levels. […] Cell viability (Cell Titer Glo) data relative to DMSO control after 7 days of treatment with compound 22 are presented as examples to confirm inhibition. GI50=5 nM. (C): Provided technologies can modulate cell states and induce differentiation. […] (D): Provided technologies can reduce KAT2A and KAT2B levels and histone acetylation levels including in neuroendocrine prostate cancer primary patient organoid. […] Concentrations are nM. […] Cell viability data relative to DMSO control after 21 days of treatment with compound 22 are presented as examples to confirm inhibition. GI50=3 nM. (F): Provided technologies can modulate cell states and induce differentiation.

CD86 in MOLM-13 cells = assay: Flow cytometry for CD86 (monocytic differentiation) in MOLM-13; conditions: FIG. 2
Protocol: In some assessments, flow cytometry was utilized to assess levels of cells expressing certain polypeptides. For example, for flow cytometry for CD86 in MOLM-13, MOLM13 cells were stained with Live/Dead solution (Fixable Live/Dead NIR 1:100 in PBS) at RT, in the dark, for 20 min and then washed once with cell staining solution. The cells were then blocked with Human Fc Blocker solution at RT for 8 mins. Then they were labeled with CD86-APC R700 (565149, BD) (2.5 uL/test) on ice for 30 min in the dark. Following incubation, cells were washed once with cell staining solution. Flow cytometric acquisition was done on BD Celesta flow cytometer (BD Biosciences) and analyses were performed using Flow-Jo software.

histone acetylation [1] = assay: Western blot of histone acetylation in NEPC primary patient organoid, 72 hours; conditions: FIG. 3 (D)
Protocol: as §1

NCI-H1048 cells = assay: Cell growth inhibition (cell count, 8 days), small cell lung cancer NCI-H1048 cells; conditions: Homo sapiens, 192 h, cell count relative to DMSO control after 8 days, FIG. 1 (C)
Protocol: FIG. 1. Provided compounds can provide various activities including inhibiting tumor growth in vivo. (A): Provided compounds can inhibit tumor growth in vivo. Nude Balb/c mice were inoculated with NCI-H1048 cells in Matrigel. Tumors were allowed to grow up to about 200 mm^3 and mice were then randomized into two groups. Mice were dosed intraperitoneally (i.p.) once per week with vehicle or 30 mg/kg compound 22. Tumor size was measured every three to four days and mice were sacrificed once vehicle tumors reached 2000 mm^3. Error bar is SEM. Dosing started at day 17 post tumor inoculation. (B): Provided technologies can reduce KAT2A and KAT2B levels and histone acetylation levels. […] Vehicle is DMSO. […] Cell count data relative to DMSO control after 8 days of treatment with compound 22 are presented as examples to confirm inhibition. GI50=6 nM. (D): Provided technologies can inhibit tumor growth in vivo. Nude balb/c mice inoculated with H1048 tumors were dosed intraperitoneally once per week (qw i.p.) with vehicle (HbCD) or compound 22. Average tumor volumes+/−SEM from 6 mice are represented. […] See also (A). […] Certain body weights relative to starting weight are presented as examples to confirm tolerability and safety. (F): Provided technologies can reduce KAT2A and KAT2B levels and histone acetylation levels in tumor in vivo. […]

LASCPC-01 cells = assay: Cell growth inhibition, neuroendocrine prostate cancer line LASCPC-01 (Cell Titer Glo, day 7)
From the text: Among other things, provided technologies are useful for treating various diseases, disorders, or conditions. For example, in some embodiments, provided technologies are useful for treating cancer as confirmed in the present Example. […] In some embodiments, provided technologies can inhibit cell proliferation. In some embodiments, the present disclosure provides technologies for assessing various technologies, e.g., compounds, compositions, or methods. Among other things, the present Example provides technologies, e.g., cell growth inhibition assay, for assessing various technologies. […] In some embodiments, the following cell growth inhibition methods are utilized to assess provided technologies.
Neuroendocrine prostate cancer: Neuroendocrine prostate cancer line LASCPC-01 cells were cultured in DMEM F12 media with 5% FBS, 1% Penicillin/Streptomycin and HITES supplement (Hydrocortisone, Insulin, Transferrin, Estradiol and Sodium Selenite). Cells were plated at 1,425 cells/well of a 96 well plate. Compound and media were replenished every two days and at day 7 cell viability was assayed using Cell Titer Glo following manufacturer's instructions.
In some assessments, for cell growth inhibition, cells, e.g., MOLM13, NCI-H1048, and LASCPC-01 cells, were counted using a hemocytometer or automated cell counting in triplicates. In some assessments, proliferation in NEPC organoids as measured with Cell Titer Glo reagent (Promega). Growth inhibition was determined relative to vehicle control.

KAT2A = KAT2A (Homo sapiens, UniProt Q92830); assay: KAT2A reduction in LASCPC-01 cells; parameters: degrader, Western blot
Protocol: MOLM-13 cells or NCI-H1048 cells were washed with PBS, then lysed with RIPA buffer containing 1×protease and phosphatase inhibitors (SantaCruz Biotechnologies Cat #sc-24948A). Protein was isolated by centrifugation at 12,000×g for 10 minutes at 4° C. and supernatant was collected. Protein was quantified via Bradford assay. Samples were diluted to 4 μg lysate in 16 μL RIPA buffer and then 4 μL of Jess Sample Buffer. Samples were heated at 95° C. for 5 minutes. Samples were loaded onto 12-230 kDa Jess™ Separation Module, 8×25 capillary cartridges (SM-W004, Biotechne). Antibodies loaded were: Primary antibody for KAT2A (GCN5L2 (C26A10) Rabbit mAb (3305, CST)) and for KAT2B (PCAF (C14G9)) Rabbit mAb (3378, CST) at 1:1000 and Anti-Rabbit Detection Module for Jess™ (Cat No #DM-001, Biotechne). Signal was detected by chemiluminescence.
In some embodiments, assessment was performed in LASCPC-01 cells, and reduction of KAT2A and KAT2B levels, including in some cases selectivity for one over the other, was confirmed. In some embodiments, DC50 and/or DC90 were assessed. In some embodiments, DC50 for various compounds was about or no more than about 1 nM. In some embodiments, DC90 for various compounds was about or no more than about 1 nM. In some embodiments, selectivity for the same polypeptide by a compound was observed across multiple types of cells (e.g., when assessed using DC50 and/or DC90). In some embodiments, certain compounds can provide improved properties and/or activities (e.g., potency). Data from certain assessments for certain compounds are presented below as examples (NT: not tested). It has been confirmed that various compounds described herein, including multiple compounds in Table 1, can be deemed to provide further improved properties and/or activities compared to the compound(s) in the table below for certain contexts, aspects, and/or uses.

histone acetylation [2] = assay: Western blot of histone acetylation in neuroendocrine prostate cancer LASCPC-01 cells, 24 hours; conditions: FIG. 3 (A)
Protocol: as §1

Sequence of KAT2A (Q92830 whole entry): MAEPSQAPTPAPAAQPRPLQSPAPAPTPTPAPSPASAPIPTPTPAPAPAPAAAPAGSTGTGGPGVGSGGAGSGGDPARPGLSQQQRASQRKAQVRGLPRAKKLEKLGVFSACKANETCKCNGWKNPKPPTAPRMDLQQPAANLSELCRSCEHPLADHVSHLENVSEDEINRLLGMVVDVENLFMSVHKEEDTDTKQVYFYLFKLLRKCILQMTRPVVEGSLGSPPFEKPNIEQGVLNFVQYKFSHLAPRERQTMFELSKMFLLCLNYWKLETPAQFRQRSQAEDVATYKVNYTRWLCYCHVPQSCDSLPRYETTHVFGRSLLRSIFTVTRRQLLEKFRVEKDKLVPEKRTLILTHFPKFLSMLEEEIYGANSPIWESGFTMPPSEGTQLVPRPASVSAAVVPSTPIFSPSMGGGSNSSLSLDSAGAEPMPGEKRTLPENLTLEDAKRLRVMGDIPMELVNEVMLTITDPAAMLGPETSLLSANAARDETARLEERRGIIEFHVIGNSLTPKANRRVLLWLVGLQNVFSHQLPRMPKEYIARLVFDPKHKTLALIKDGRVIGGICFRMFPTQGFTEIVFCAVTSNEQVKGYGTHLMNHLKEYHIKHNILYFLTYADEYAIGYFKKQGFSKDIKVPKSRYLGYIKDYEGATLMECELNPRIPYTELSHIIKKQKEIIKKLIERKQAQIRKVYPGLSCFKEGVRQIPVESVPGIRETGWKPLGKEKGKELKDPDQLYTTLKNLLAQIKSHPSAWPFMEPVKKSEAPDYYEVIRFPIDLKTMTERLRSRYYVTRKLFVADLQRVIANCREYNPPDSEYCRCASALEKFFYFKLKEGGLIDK
Sequence of KAT2B (Q92831 whole entry): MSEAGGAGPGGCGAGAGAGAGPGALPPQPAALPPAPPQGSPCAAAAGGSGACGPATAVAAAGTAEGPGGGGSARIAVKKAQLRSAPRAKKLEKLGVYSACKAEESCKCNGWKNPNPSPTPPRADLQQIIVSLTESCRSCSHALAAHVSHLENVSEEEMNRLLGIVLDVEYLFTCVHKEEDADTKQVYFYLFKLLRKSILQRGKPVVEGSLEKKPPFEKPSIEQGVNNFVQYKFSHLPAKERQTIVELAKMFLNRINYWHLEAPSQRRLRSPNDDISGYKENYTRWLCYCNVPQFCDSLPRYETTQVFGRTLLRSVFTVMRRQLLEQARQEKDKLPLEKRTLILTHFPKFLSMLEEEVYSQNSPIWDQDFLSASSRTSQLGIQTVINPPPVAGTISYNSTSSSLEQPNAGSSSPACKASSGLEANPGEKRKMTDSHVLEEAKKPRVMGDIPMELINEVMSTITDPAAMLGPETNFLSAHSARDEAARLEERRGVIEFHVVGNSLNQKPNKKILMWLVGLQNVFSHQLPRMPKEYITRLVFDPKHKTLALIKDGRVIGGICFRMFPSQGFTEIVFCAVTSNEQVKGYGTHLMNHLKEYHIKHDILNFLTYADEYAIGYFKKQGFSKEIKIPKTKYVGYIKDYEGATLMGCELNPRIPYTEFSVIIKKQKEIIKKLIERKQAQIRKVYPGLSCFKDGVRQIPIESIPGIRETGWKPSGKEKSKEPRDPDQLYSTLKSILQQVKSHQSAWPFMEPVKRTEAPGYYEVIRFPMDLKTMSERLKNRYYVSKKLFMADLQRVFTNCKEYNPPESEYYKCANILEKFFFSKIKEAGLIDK

Which “reduction of KAT2B level” value (KAT2B) does the source give for `CN1C[C@H](Nc2cnn(C)c(=O)c2Br)C[C@H](c2ccc(C(=O)N3CCC(CN4CCN(c5ccc6c(c5)CN(C5CCC(=O)NC5=O)C6=O)CC4)CC3)cc2)C1` (stereo partly drawn) [Compound 22, 3-(5-(4-((1-(4-((3R,5R)-5-((5-bromo-1-methyl-6-oxo-1,6-dihydropyridazin-4-yl)amino)-1-methylpiperidin-3-yl)benzoyl)piperidin-4-yl)methyl)piperazin-1-yl)-1-oxoisoindolin-2-yl)piperidine-2,6-dione] here?
The value was “confirmed such reductions”.

What about the “induction of differentiation (CD86)” value (CD86 in MOLM-13 cells) of the same compound?
The value was “induce differentiation (e.g., monocytic differentiation as assessed using CD86)”.

What about the “reduction of histone acetylation level” value (histone acetylation [1]) of the same compound?
Its value is “confirmed such reductions”.

What about the GI50 (NCI-H1048 cells) of the same compound?
Its GI50 is 6 nM.

What about the GI50 (LASCPC-01 cells; 168 h, LASCPC-01, day 7, Cell Titer Glo, read-out: LASCPC GI50) of the same compound?
Its GI50 is 5.3 nM.

What about the GI50 (LASCPC-01 cells; LASCPC-01, comparison table with Ref-1, read-out: Growth GI50) of the same compound?
The GI50 was 5 nM.

What about the “cell growth in vitro” value (LASCPC-01 cells; LASCPC-01 cells, FIG. 3) of the same compound?
Its value is “inhibit cell growth in vitro and in vivo”.

What about the DC50 (KAT2A; LASCPC-01, KAT2A) of the same compound?
The DC50 was 0.06 nM.

And the EC90 (KAT2A; LASCPC-01, KAT2A, read-out: DC90 (the source's name))?
Its EC90 is 0.67 nM.

What about the KAT2A levels (KAT2A; LASCPC-01 cells, FIG. 3) of the same compound?
Its KAT2A levels is “potently reduce KAT2A and KAT2B levels”.

And the “reduction of histone acetylation level” value (histone acetylation [2])?
The value was “confirm such reduction”.
